Measurements published in patent US8455475B2 (Gruenenthal GmbH, priority 2009, dated 2013).

Columns and labels:
[1] = molecular target: T1, human B1R (bradykinin receptor 1) (Homo sapiens, UniProt P46663); experiment: FLIPR Ca2+ assay (Fluo-4) on CHO K1 cells stably transfected with the human B1R gene (hB1R cells): % inhibition at 10 μM / IC50, agonist Lys-Des-Arg9-bradykinin; type: cell-based; conditions: for inhibition at 10 µM: CHO-K1, human B1R
T1 construct: expressed in transfected cells; host or cells: CHO K1 cells
T1 sequence (P46663 1-353): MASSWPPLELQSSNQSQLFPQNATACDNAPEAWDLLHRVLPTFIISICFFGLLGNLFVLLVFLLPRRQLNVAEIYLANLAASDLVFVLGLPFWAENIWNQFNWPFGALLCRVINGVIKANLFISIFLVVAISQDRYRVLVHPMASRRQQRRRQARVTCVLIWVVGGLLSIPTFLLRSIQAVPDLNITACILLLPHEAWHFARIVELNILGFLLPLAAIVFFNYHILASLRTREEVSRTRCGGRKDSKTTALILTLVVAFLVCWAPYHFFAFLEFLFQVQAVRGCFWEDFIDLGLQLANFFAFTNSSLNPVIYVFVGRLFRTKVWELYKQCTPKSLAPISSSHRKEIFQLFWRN
Protocol: The agonistic or antagonistic action of substances can be quantified on the bradykinin receptor 1 (B1R) of the human and rat species with ectopically expressing cell lines (CHO K1 cells) and with the aid of a Ca^2+-sensitive dyestuff (Fluo-4) in a fluorescent imaging plate reader (FLIPR). The figure in % activation is based on the Ca^2+ signal after addition of Lys-Des-Arg^9-bradykinin (0.5 nM) or Des-Arg^9-bradykinin (100 nM). Antagonists lead to a suppression of the Ca^2+ inflow after addition of the agonist. % inhibition compared with the maximum achievable inhibition is stated.
The agonistic or antagonistic action of substances can be determined on the bradykinin receptor 1 (B1R) of the human and rat species with the following assay. In accordance with this assay, the Ca^2+ inflow through the channel is quantified with the aid of a Ca^2+-sensitive dyestuff (type Fluo-4, Molecular Probes Europe BV, Leiden, Holland) in a fluorescent imaging plate reader (FLIPR, Molecular Devices, Sunnyvale, USA).
Chinese hamster ovary cells (CHO K1 cells) transfected stably with the human B1R gene (hB1R cells) or the B1R gene of the rat (rB1R cells) are used. For functional studies, these cells are plated out on black 96-well plates with a clear base (BD Biosciences, Heidelberg, Germany or Greiner, Frickenhausen, Germany) in a density of 20,000-35,000 cells/well. The cells are left overnight at 37° C. and 5% CO2 in culture medium (hB1R cells: Nutrient Mixture Ham's F12, Gibco Invitrogen GmbH, Karlsruhe, Germany or DMEM, Sigma-Aldrich, Taufkirchen, Germany; rB1R cells: D-MEM/F12, Gibco Invitrogen GmbH, Karlsruhe, Germany) with 10 vol. % FBS (foetal bovine serum, Gibco Invitrogen GmbH, Karlsruhe, Germany or PAN Biotech GmbH, Aidenbach, Germany). On the following day, the cells are loaded for 60 min at 37° C. with 2.13 μM Fluo-4 (Molecular Probes Europe BV, Leiden Holland) in HBSS buffer (Hank's buffered saline solution, Gibco Invitrogen GmbH, Karlsruhe, Germany) with 2.5 mM probenecid (Sigma-Aldrich, Taufkirchen, Germany) and 10 mM HEPES (Sigma-Aldrich, Taufkirchen, Germany). The plates are then washed 2× with HBSS buffer, and HBSS buffer which additionally contains 0.1% BSA (bovine serum albumin; Sigma-Aldrich, Taufkirchen, Germany), 5.6 mM glucose and 0.05% gelatine (Merck KGaA, Darmstadt, Germany) is added. After a further incubation of 20 minutes at room temperature, the plates are inserted into the FLIPR for the Ca^2+ measurement. Alternatively, the plates are washed with buffer A (15 mM HEPES, 80 mM NaCl, 5 mM KCl, 1.2 mM CaCl2, 0.7 mM MgSO4, 2 g/l glucose, 2.5 mM probenecid), buffer A is added and the plates are loaded with 2.5 μM Fluo-4 and 0.025% Pluronic F127 (Sigma-Aldrich, Taufkirchen, Germany). Thereafter, the cells are washed 2× with buffer A and incubated for 30 minutes at room temperature with buffer A, which additionally contains 0.05% BSA and 0.05% gelatine, and thereafter inserted into the FLIPR for the Ca^2+ measurement. The Ca^2+-dependent fluorescence is measured here before and after addition of substances (λex=488 nm, λem=540 nm). Quantification is by measurement of the highest fluorescence intensity (FC, fluorescence counts) over time.
The FLIPR protocol consists of 2 additions of substance. Test substances (10 μM) are first pipetted on to the cells and the Ca^2+ inflow is compared with the control (hB1R: Lys-Des-Arg^9-bradykinin>=50 nM; rB1R: Des-Arg^9-bradykinin 10 μM). This gives the result in % activation based on the Ca^2+ signal after addition of Lys-Des-Arg^9-bradykinin (>=50 nM) or Des-Arg^9-bradykinin (10 μM). After incubation for 10-20 minutes, Lys-Des-Arg^9-bradykinin (hB1R) or Des-Arg^9-bradykinin (rB1R) in the concentration of the EC80 is applied and the inflow of Ca^2+ is likewise determined. Antagonists lead to a suppression of the Ca^2+ inflow. % inhibition compared with the maximum achievable inhibition is calculated.
For determination of the IC50 value, the substances are added in various concentrations. […]

[2] = molecular target: T2, rat B1R (bradykinin receptor 1) (Rattus norvegicus, UniProt P97583); experiment: FLIPR Ca2+ assay (Fluo-4) on CHO K1 cells stably transfected with the B1R gene of the rat (rB1R cells): % inhibition at 10 μM / IC50, agonist Des-Arg9-bradykinin; type: cell-based; conditions: for inhibition at 10 µM: CHO-K1, rat B1R
T2 construct: expressed in transfected cells; host or cells: CHO K1 cells
T2 sequence (P97583 1-337): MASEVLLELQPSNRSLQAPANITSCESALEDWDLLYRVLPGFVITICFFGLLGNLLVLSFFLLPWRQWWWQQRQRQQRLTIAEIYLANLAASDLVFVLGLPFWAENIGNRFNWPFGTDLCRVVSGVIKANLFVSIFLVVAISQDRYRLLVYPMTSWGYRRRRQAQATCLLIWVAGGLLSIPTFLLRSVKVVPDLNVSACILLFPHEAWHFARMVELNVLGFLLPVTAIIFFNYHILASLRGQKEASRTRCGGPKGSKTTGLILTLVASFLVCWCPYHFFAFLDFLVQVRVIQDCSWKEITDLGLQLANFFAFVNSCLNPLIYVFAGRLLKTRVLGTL
Method in brief: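 Antagonism is measured as the drop in peak Fluo-4 Ca2+ signal when the EC80 agonist follows 10–20 min compound exposure. The single-point screen uses 10 μM; IC50 uses several concentrations. Values are given as % of maximal achievable inhibition.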

Row | Structure (SMILES) | inhibition at 10 µM [1] | inhibition at 10 µM [2] | % Inhibition (human B1R) at 10 μM ([1]; human B1R, 10 µM) | % Inhibition (rat B1R) at 10 μM ([2]; rat B1R, 10 µM)
1 | O=C(c1ccc2c(c1)[C@@H](N1Cc3cccc(Cl)c3C1=O)CCC2)N1CCC2(CCN(c3ccncc3)CC2)C1 [Example H-15, 7-chloro-2-[(1S)-7-(8-pyridin-4-yl-3,8-diazaspiro[4.5]decane-3-carbonyl)-1,2,3,4-tetrahydro-naphthalen-1-yl]-2,3-dihydro-isoindol-1-one] | 59% | 11% | – | –
2 | COc1cc(C)c(S(=O)(=O)N[C@@H]2CCCc3ccc(C(=O)N4CCC5(CCN(c6ccncc6)CC5)C4)cc32)c(C)c1 [Example H-16, 4-methoxy-2,6-dimehtyl-N-[(1R)-7-(8-pyridin-4-yl-3,8-diazaspiro[4.5]decane-3-carbonyl)-1,2,3,4-tetrahydro-naphthalen-1-yl]-benzenesulfonic acid amide] | 100% | 102% | – | –
3 | COc1cc(C)c(S(=O)(=O)N[C@@H]2CCCc3ccc(C(=O)N4CCC5(CC4)CCN(c4ccncc4)CC5)cc32)c(C)c1 [Example H-17, 4-methoxy-2,6-dimethyl-N-[(1R)-7-(9-pyridin-4-yl-3,9-diazaspiro[5.5]undecane-3-carbonyl)-1,2,3,4-tetrahydro-naphthalen-1-yl]-benzenesulfonic acid amide] | 98% | 102% | – | –
4 | COc1cc(C)c(S(=O)(=O)N[C@H]2CCCc3ccc(C(=O)N4CCC5(CCN(c6ccncc6)CC5)C4)cc32)c(C)c1 [Example H-18, 4-methoxy-2,6-dimethyl-N-[(1S)-7-(8-pyridin-4-yl-3,8-diazaspiro[4.5]decane-3-carbonyl)-1,2,3,4-tetrahydro-naphthalen-1-yl]-benzenesulfonic acid amide] | 96% | 104% | – | –
5 | COc1cc(C)c(S(=O)(=O)N[C@H]2CCCc3ccc(C(=O)N4CCC5(CC4)CCN(c4ccncc4)CC5)cc32)c(C)c1 [Example H-19, 4-methoxy-2,6-dimethyl-N-[(1S)-7-(9-pyridin-4-yl-3,9-diazaspiro[5.5]undecane-3-carbonyl)-1,2,3,4-tetrahydro-naphthalen-1-yl]-benzenesulfonic acid amide] | 99% | 102% | – | –
6 | CC1(C)Cc2ccc(C(=O)N3CCC4(CCN(c5ccncc5)CC4)C3)cc2C1NC(=O)c1ccccc1Cl (stereo not drawn) [Example H-47, 2-chloro-N-[2,2-dimethyl-6-(8-pyridin-4-yl-3,8-diazaspiro[4.5]decane-3-carbonyl)-1,3-dihydro-inden-1-yl]-benzamide] | 99% | 101% | – | –
7 | CN(C(=O)c1ccccc1Cl)C1CCc2ccc(C(=O)N3CCC4(CCN(c5ccncc5)CC4)C3)cc21 (stereo not drawn) [Example H-49, 2-chloro-N-methyl-N-[6-(8-pyridin-4-yl-3,8-diazaspiro[4.5]decane-3-carbonyl)-2,3-dihydro-1H-inden-1-yl]-benzamide] | – | – | 99% | 100%
8 | O=C(NC1CCc2ccc(C(=O)N3CCC4(CCN(c5ccc6cnccc6c5)CC4)C3)cc21)c1ccccc1Cl (stereo not drawn) [Example H-50, 2-chloro-N-[6-(8-isoquinolin-6-yl-3,8-diazaspiro[4.5]decane-3-carbonyl)-2,3-dihydro-1H-inden-1-yl]-benzamide] | 98% | 98% | – | –

More lines, now with the values ahead:

Row | inhibition at 10 µM [1] | inhibition at 10 µM [2] | % Inhibition (human B1R) at 10 μM ([1]; human B1R, 10 µM) | % Inhibition (rat B1R) at 10 μM ([2]; rat B1R, 10 µM) | Structure (SMILES)
9 | 100% | 105% | – | – | O=C(N[C@H]1CCc2ccc(C(=O)N3CCC4(CCN(c5ccncc5)CC4)C3)cc21)c1ccccc1Cl [Example H-20, 2-chloro-N-[(1S)-6-(8-pyridin-4-yl-3,8-diazaspiro[4.5]decane-3-carbonyl)-2,3-dihydro-1H-indecn-1-yl]-benzamide]
10 | 100% | 105% | – | – | O=C(N[C@@H]1CCc2ccc(C(=O)N3CCC4(CCN(c5ccncc5)CC4)C3)cc21)c1ccccc1Cl [Example H-21, 2-chloro-N-[(1R)-6-(8-pyridin-4-yl-3,8-diazaspiro[4.5]decane-3-carbonyl)-2,3-dihydro-1H-inden-1-yl]-benzamide]
11 | 46% | 101% | – | – | O=C(N[C@@H]1CCc2ccc(C(=O)N3CCC4(CCCN(c5ccncc5)C4)CC3)cc21)c1ccccc1Cl [Example H-26, 2-chloro-N-[(1R)-6-(8-pyridin-4-yl-3,8-diazaspiro[5.5]undecane-3-carbonyl)-2,3-dihydro-1H-inden-1-yl]-benzamide]
12 | 100% | 102% | – | – | O=C(N[C@@H]1CCc2ccc(C(=O)N3CC4(CCN(c5ccncc5)CC4)C3)cc21)c1ccccc1Cl [Example H-27, 2-chloro-N-[(1R)-6-(7-pyridin-4-yl-2,7-diazaspiro[3.5]nonane-2-carbonyl)-2,3-dihydro-1H-inden-1-yl]-benzamide]
13 | 57% | 102% | – | – | CN1CCC(N2CCC3(CCN(C(=O)c4ccc5c(c4)[C@H](NC(=O)c4ccccc4Cl)CC5)CC3)CC2)CC1 [Example H-28, 2-chloro-N-[(1R)-6-[9-(1-methyl-piperidin-4-yl)-3,9-diazaspiro[5.5]undecane-3-carobnyl]-2,3-dihydro-1H-inden-1-yl]-benzamide]
14 | 33% | 55% | – | – | CN1CCN(C(=O)C2CCC3(CC2)CCN(C(=O)c2ccc4c(c2)[C@H](NC(=O)c2ccccc2Cl)CC4)CC3)CC1 [Example H-29, 2-chloro-N-[(1R)-6-[9-(4-methyl-piperazine-1-carbonyl)-3-azaspiro[5.5]undecane-3-carbonyl]-2,3-dihydro-1H-inden-1-yl]-benzamide]
15 | 63% | 97% | – | – | O=C(NC1CCc2ccc(C(=O)N3CCC4(CCN(c5ccc(C(F)(F)F)cn5)CC4)C3)cc21)c1ccccc1Cl (stereo not drawn) [Example H-48, 2-chloro-N-[6-[8-[5-(trifluoromethyl)-pyridin-2-yl]-3,8-diazaspiro[4.5]decane-3-carbonyl]-2,3-dihydro-1H-inden-1-yl]-benzamide]
